Reference: patent US8669377B2, “Anti-human urothelial carcinoma of supercritical carbon dioxide extract of Cinnamomum subavenium, and the preparation process and uses” (Kaohsiung Medical University, priority 2011, dated 2014)
Read-outs that look alike come from different tables or passages of the source.

Columns and labels:
[1] = test system: SV-HUC-1 cells; assay: Intracellular ROS (DCFH-DA flow cytometry), SV-HUC-1; assay type: cell-based, human; conditions: SV-HUC-1, 10 μM, compared with control cells
Procedure: (§1) Production of ROS was analyzed by flow cytometry. Briefly, cells were plated in 6-well plates, and dichlorofluorescein diacetate (DCFH-DA, […]) were added to the treated cells 30 minutes prior to harvest. The cells were collected by trypsinization and washed with PBS. The green fluorescence of intracellular DCF (2′,7′-dichlorofluorescein) was then analyzed by FACScan™ flow cytometer with a 525-nm band pass filter. The ROS production efficiency (M1 ratio) was calculated as “[counts of treated sample in M1−counts of control in M1]/counts of control in M1×100”.

[2] = test system: human urothelial carcinoma cell line NTUB1; assay: MTT cytotoxicity assay, NTUB1; assay type: cell-based
Procedure: (§2) Cytotoxicity assay was performed by using C. subavenium supercritical CO2 extract obtained according to the preparation method mentioned above. […] C. subavenium supercritical CO2 extract selectively functioned on NTUB1 carcinoma cells rather than the normal cells.
(§3) Cellular cytotoxicity of tested compounds was performed by using a MTT (3-[4,5-dimethylthiazol-2-yl]-2,5-diphenyltetrazolium bromide) assay. Briefly, the cells were plated with a density of 1×10^3 cells/well in 96-well plates and incubated at 37° C. overnight before drug treatment. Cells were then cultured in the absence or presence of various concentrations (0.3, 1, 3, 6, 9, 12, 15 and 20 μM) of subamolide A at 37° C. for 72 hours. Subsequently, 50 μL of MTT (2 mg/mL in PBS) was added to each well and allowed to react for another 4 hours. Following centrifugation at 1000×g for 10 minutes, media were removed and 150 μL DMSO were added to each well. The proportions of surviving cells were determined by absorbance spectrometry at 540 nm using a microplate reader. The cell viability was expressed as the survival ratio to the un-treated control. The IC50 values of each group were calculated by the median inhibitory analysis and presented as means±SD. The combinational effects of two compounds were analyzed by median-effect analysis. To evaluate the combined effects in growth inhibition, a corresponding combination index (CI) was adopted for the measurement. The combination index of <1, =1, or >1 denotes synergic, additive, or antagonistic effect, respectively.

[3] = test system: urothelial carcinoma cells T24; assay: MTT cytotoxicity assay, T24; assay type: cell-based, human; conditions: T24, 72 hours; read-out: IC50 (reduction of growth)
Procedure: as §3

[4] = test system: NTUB1 cells; assay: Immunoblotting of cellular proteins; assay type: cell-based, human
[5] = test system: NTUB1 cells; assay: Combinational cytotoxicity (MTT, combination index, median-effect analysis); assay type: cell-based, human; conditions: 24, 48, 72 hours
Procedure: as §3, with “respectively. […]” for “respectively.”

[6] = test system: normal urothelial cell line SV-HUC-1; assay: MTT cytotoxicity assay, SV-HUC-1; assay type: cell-based, human; conditions: SV-HUC-1, 72 hours; read-out: IC50 (reduction of growth)
Procedure: as §2
as §3, with “To evaluate the combined effects in growth inhibition, a corresponding combination index (CI) was adopted for the measurement. The combination index of <1, =1, or >1 denotes synergic, additive, or antagonistic effect, respectively.” left out

[7] = test system: NTUB1 cells; assay: Cell cycle / sub-G1 apoptotic fraction by flow cytometry; assay type: cell-based, human; conditions: 24 hours
[8] = test system: NTUB1 cells; assay: Intracellular ROS (DCFH-DA flow cytometry), NTUB1; assay type: cell-based, human; conditions: NTUB1, 10 μM, compared with control cells
Procedure: as §1

[9] = test system: prostate cancer cells PC3; assay: MTT cytotoxicity assay, PC3; assay type: cell-based, human; conditions: PC3, 72 hours; read-out: IC50 (reduction of growth)
Procedure: as §3

## (3Z,4R,5R)-3-tetradecylidene-4-hydroxy-5-methoxy-5-methylbutanolide [subamolide A]
[1]
  ROS M1 ratio: −11.6±1.41%
[2]; NTUB1, 72 hours, read-out: IC50 (reduction of growth)
  IC50: 7.26 ± 0.67 µM
[3]
  IC50: 7.6 ± 0.96 µM
[4]; 10 μM
  Bax/Bcl-2 ratio, fold of change: two-fold increase
  cytochrome c released from mitochondria to cytosol, fold of change: 2.3 folds
[4]; 10 μM, 24 hours, not p38 or JNK
  ERK1/2 activation (immunoblot): specifically activated
[4]; NTUB1 cells
  p53 protein and phosphorylation of p53 at serine 15: induced
[4]; with increased concentration
  pro-caspase 3 and 116 kDa full length PARP proteins: decreased
[5]; subamolide A 0, 1, 5, 10 μM + CDDP 1 and 3 μM
  combinational effect with CDDP: synergism
[5]; subamolide A 0, 1, 5, 10 μM + Gem 2 and 8 nM
  combinational effect with Gem: synergism
[6]
  IC50: 18.1 ± 1.03 µM
[7]; 1 μM
  sub-G1 apoptotic fraction: 5%
[7]; 5 μM
  sub-G1 apoptotic fraction: 10.8%
[7]; 10 μM
  sub-G1 apoptotic fraction: 21.9%
[8]
  ROS M1 ratio: −14.7±0.99%
[9]
  IC50: 10.1 ± 0.59 µM

## N.N.[Cl][Pt][Cl] [CDDP, cis-diamminedichloridoplatinum]
[2]; 72 hours, 1×10^3 cells/well (data not shown), read-out: IC50 to NTUB1 cells
  IC50: 3 µM

## Nc1ccn([C@@H]2O[C@H](CO)[C@@H](O)C2(F)F)c(=O)n1 [Gem, 4-amino-1-(2-deoxy-2,2-difluoro-β-D-erythro-pentofuranosyl)-pyrimidin-2(1H)-on]
[2]; Homo sapiens, NTUB1, 72 hours, 1×10^3 cells/well (data not shown), read-out: IC50 to NTUB1 cells
  IC50: 0.008 µM
